Experimental data as given in US5608093A, “Corticosteroid 17-alkyl carbonate 21-[0]-carboxylic and carbonic esters, and pharmaceuticals containing these compounds” (Hoechst Aktiengesellschaft, priority 1993, dated 1997).

Columns and labels:
[1] = tested on: croton oil (TPA) ear edema, rat ear; experiment: Local antiinflammatory effect in rat croton oil ear edema following epicutaneous application; format: in vivo, rat (male Wistar); details: for Inhibition in % / x ± s (mg), ear disk weight difference (right treated minus left untreated): epicutaneous, 4 h; for Local antiinflammatory effect (in words): general statement; for Relative local antiinflammatory potency (Result): rat ear edema, in words
Method: (§1) 1. Local antiinflammatory effect in rat croton oil ear edema following epicutaneous application
(§2) We used the rat ear method of Tonelli et al.: male Wistar rats from our own colony and weighing about 50 g were treated epicutaneously on the right ear with the irritant or with irritant containing test substance. The left ear remained untreated. TPA (12-O-tetradecanoylphorbol 13-acetate, SIGMA P 8139) dissolved in acetone, 0.4 mg/ml, (of which 20 μl each on the inside and outside) was used for eliciting the inflammation. The corticoids under examination were dissolved in this solution in the given final concentrations. Controls only received the TPA/solvent mixture. The animals were sacrificed using CO2 4 h after the epicutaneous treatment. Disks measuring 8 mm in diameter were punched out of the right (treated) and the left (untreated) ears and weighed immediately. This difference, as the parameter for the degree of inflammation, was set at 100 in the controls (mg, x±s). The antiinflammatory effect is characterized by giving the dose in mg/ml which is required for approximately 50% inhibition: […]

[2] = tested on: gluconeogenesis in rats (liver); experiment: Systemic effect: gluconeogenesis in adrenalectomized rats; details: for Glycogen + glucose mg/100 g of liver / Liver glycogen: 6 h; for Effect on new formation of glucose and glycogen (in words): p 0.05, t test
Method: A sensitive method for detecting systemic effects on carbohydrate metabolism is to examine the gluconeogenic effect of corticosteroids in the adrenalectomized rat. Three days prior to the experiment, groups of in each case 6 rats are adrenalectomized under pentobarbital anesthesia and then provided with 0.9% sodium chloride solution as drinking fluid. Two days later, i.e. 24 hours before initiating the experiment, the feed is removed in order to reduce the glycogen stores in the liver.
On the day of the experiment, the preparations under examination are administered subcutaneously, dissolved in sesame oil (2 ml/kg). Six hours later, the animals are decapitated, and in each case the liver is removed and 1 g thereof is taken up in 5 ml of 0.6 molar perchloric acid. After homogenization, the free glucose is measured in the supernatant from the centrifugation, while the centrifugation sediment (centrifugate; glycogen) is cleaved enzymically with amyloglucosidase, after which the glucose content is also measured in this fraction (Hexokinase method, Boehringer Mannheim).

carrageenan paw edema = experiment: Systemic antiinflammatory effect following subcutaneous administration: carrageenan paw edema in rats; format: in vivo, rat (male Sprague-Dawley); details: for Increase in volume (ml) (x ± s), paw: 6 h after carrageenan
Method: 2 a) Examining for systemic antiinflammatory effect in the "antiinflammatory effect following subcutaneous administration: carrageenan paw edema in rats" test.
The carrageenan paw edema test in rats in accordance with the method described by Winter et al. Proc. Soc. Exp. Biol. (New York) Volume 111, p. 544 (1962) was chosen as the test for the acute systemic antiinflammatory effect. Male Sprague-Dawley rats of about 120 g in weight were given the substances to be tested s.c. (0.2 ml/100 g) dissolved in sesame oil. 30 min later, 0.1 ml of a 0.5% carrageenan solution was injected into the left hind paw. 6 h later, the degree of swelling was measured volumetrically. Controls were only given sesame oil.
The paw volumes are given in ml, x±s. In this case too, the antiinflammatory effect is characterized by giving the dose in mg/kg required for approximately 50% inhibition.

[3] = Split (ratio) of local to systemic antiinflammatory effect / therapeutic advantage; format: in vivo, rat
Method: as §1, §2
The carrageenan paw edema test in rats in accordance with the method described by Winter et al. Proc. Soc. […] 6 h later, the degree of swelling was measured volumetrically. […]

[4] = 3 mg/kg s.c., * significant, t test
[5] = 3.0 mg/kg s.c., * p<0.05, Dunnett's test

Row | SMILES | Inhibition in % ([1]; 0.03 mg/ml) [%] | x ± s (mg), ear disk weight difference (right treated minus left untreated) ([1]; 0.03 mg/ml) [mg] | Inhibition in % ([1]; 0.1 mg/ml) [%] | x ± s (mg), ear disk weight difference (right treated minus left untreated) ([1]; 0.1 mg/ml) [mg] | Inhibition in % ([1]; 0.3 mg/ml) [%] | x ± s (mg), ear disk weight difference (right treated minus left untreated) ([1]; 0.3 mg/ml) [mg] | Local antiinflammatory effect (in words) [1] | Relative local antiinflammatory potency (Result) [1] | Glycogen + glucose mg/100 g of liver ([2]; 0.3 mg/kg s.c.) | Liver glycogen ([2]; 0.3 mg/kg s.c.) | Glycogen + glucose mg/100 g of liver [2, 4] | Liver glycogen [2, 4] | Effect on new formation of glucose and glycogen (in words) ([2]; 3 mg/kg s.c.) | Increase in volume (ml) (x ± s), paw (carrageenan paw edema; 0.3 mg/kg s.c.) [mL] | Increase in volume (ml) (x ± s), paw (carrageenan paw edema; [5]) [mL] | Split / ratio of local to systemic antiinflammatory effect (in words) [3] | Inhibition in % ([1]; 1 mg/ml) [%] | x ± s (mg), ear disk weight difference (right treated minus left untreated) ([1]; 1 mg/ml) [mg] | Systemic effect in paw edema compared with the test compounds (in words) (carrageenan paw edema; significant only after 3 mg/kg, s.c.)
1 | CCOC(=O)O[C@]1(C(=O)COC(=O)Cc2ccccc2)CC[C@H]2[C@@H]3CCC4=CC(=O)C=C[C@]4(C)[C@H]3[C@@H](O)C[C@@]21C [Compound I, Prednisolone 17-ethyl carbonate 21-phenylacetate] | 33 | 10 ± 3.0 | 67 | 5 ± 1.1 | 80 | 3 ± 2.3 | strong local antiinflammatory effect | approximately three times more powerful than prednicarbate | 11.3 ± 2.0 mg/100 g of liver | 0.5 ± 0.7 | 25.9 ± 13 mg/100 g of liver | 2.4 ± 2.4 | do not have any significant effect at 3 mg/kg | 0.34 ± 0.12 | 0.19 ± 0.9 | strikingly favorable split to weak systemic activity |  |  | 
2 | CCOC(=O)O[C@]1(C(=O)COC(=O)Cc2ccccc2)[C@@H](C)C[C@H]2[C@@H]3CCC4=CC(=O)C=C[C@]4(C)[C@@]3(F)[C@@H](O)C[C@@]21C [Compound II, Betamethasone 17-ethyl carbonate 21-phenyl acetate] |  |  | 66 | 5.1 ± 3.3 | 70 | 4.5 ± 3.1 | strong local antiinflammatory effect | corresponding effect to that of compound I | 23.6 ± 6.8 mg/100 g of liver | 2.8 ± 1.4 | 37.9 ± 30 mg/100 g of liver | 7.4 ± 10 | do not have any significant effect at 3 mg/kg | 0.33 ± 0.12 | 0.19 ± 0.9 | strikingly favorable split to weak systemic activity |  |  | 
3 | CCOC(=O)O[C@]1(C(=O)COC(=O)CC)CC[C@H]2[C@@H]3CCC4=CC(=O)C=C[C@]4(C)[C@H]3[C@@H](O)C[C@@]21C [Prednicarbate, prednisolone 17-ethyl carbonate 21-propionate, reference compound] |  |  |  |  |  |  |  |  |  |  |  |  |  |  |  |  | 80 | 3 ± 1.7 | corresponds to the behavior of prednicarbate
